Data reported in US12576051B2, “Methods and composition for treating respiratory obstructive diseases” (The Regents of the University of California, priority 2019, dated 2026).
Entries after “also recorded” stand apart in the source; their conditions may differ.

Key:
porcine airway mucus = test: Mucolytic activity on porcine airway mucin (electrophoresis, Coomassie stain); format: biochemical; details: for protein bands at 600 and 200 kDa of airway mucus: NaHCO3-Ringer, 60 minutes at 37° C., hydrochloride
Procedure: FIG. 9 presents the effect of compound 646 on porcine airway mucus. Mucus collected from porcine upper airways diluted in NaHCO3-Ringer, was treated with different concentrations of compound 646 (0, 0.25. 0.5 and 1 mM), for 60 minutes at 37° C. In lane 1, representative protein pattern after electrophoresis protein separation of untreated porcine airway mucus (40 μg/well).
Airway mucus supernatant diluted in NaHCO3-Ringer was treated with or without cysteamine bitartrate under basic and acidic conditions at 37° C. for 60 minutes.
Biological specimens: Isolated native porcine airways were used as experimental model. Sections of open trachea tissue (approx. 2 cm^2) were carefully rinsed and cover small volume of NaHCO3-Ringer solution. Mucus secretion was stimulated with Prostaglandin E2 (PGE2, 10−6 M). Secreted mucus over the dissected open airways was carefully collected, aliquoted and immediately frozen at −80° C.
Mucolytic activity on porcine airway mucin: One hundred microliters of collected porcine airway supernatant was incubated with Cysteamine bitartrate or compound 646 at final concentrations from 0 to 2 mM as indicated in the text. Mucolytic activity was ended with 30 microliters of SDS-sample buffer solution. 45 microliters of each sample/well were separated in an electrophoresis gel 4-12% Tris-Glycine. After electrophoresis gels were stained with Coomassie Blue solution.
Mucolytic activity of synthetic compound 646. Respiratory airway mucus contained Muc5aC and Muc5B mucins. In order to determine whether compound 646 be used as a mucolytic agent for respiratory airways, supernatant of mucus collected from porcine airways was treated with compound 646 at different concentration (0-1 mM) for 1 h at 37° C.
Mucolytic activity of cysteamine bitartrate under basic and acidic conditions. To validate whether mucolytic activity of cysteamine bitartrate depends on changes of pH, airway mucus supernatant was incubated for 1 h at 37° C. with or without 2 mM cysteamine bitartrate diluted in NaHCO3. An additional airway mucus sample was treated with cysteamine bitartrate and supplemented with 4 μL of 0.1 N of acetic solution pH 4.5. […] The reduction, however, was approximately half of the decrease seen under acidic conditions.

secreted Muc5ac mucin = test: Mucolytic activity on secreted Muc5ac mucin of open porcine trachea sections (western blot); details: 2 mM, HCO3-Ringer with PGE2 (1 uM), 10 minutes at 37° C.; FIG. 18
Procedure: FIG. 18 provides the mucolytic activity of compounds on secreted Muc5ac mucin. Epithelial luminal surface of open porcine trachea sections (˜2 cm^2) were covered with HCO3-Ringer solution ([…]) containing PGE2 (1 uM), and alcian blue (0.02%), with or without compounds at a 2 mM final concentration, and incubated for 10 minutes at 37° C. Equal volumes of each collected sample were separated on vertical electrophoresis, and then transfer to an immobilon-P membrane for western blot analysis. […] Densitometric signal of the untreated sample, as control, was normalized to 100% (% arbitrary units).
Epithelial luminal surface of open porcine trachea sections (˜2 cm^2) were covered with […] of HCO3-Ringer solution containing PGE2 (1 uM), in the presence or absence of compounds at a 2 mM final concentration, and incubated for 5 minutes at 37° C. Afterwards, […] of sterile 7% NaCl inhaled solution was added and incubated for another 5 mins at 37° C. Equal volumes of each collected sample were separated on vertical electrophoresis, and then transferred to an immobilon-P membrane for western blot analysis. […] Densitometric signal of the non-treated sample, as control, was normalized to 100% (% arbitrary units).

2-aminoethane-1-d-1-thiol hydrochloride [Compound 646]
protein bands at 600 and 200 kDa of airway mucus (porcine airway mucus; 0.5 mM): two major changes in the proteins at the level of 600 and 200 kDa; also recorded: major changes on two protein bands
protein bands at 600 and 200 kDa of airway mucus (porcine airway mucus; 1 mM): two major changes in the proteins at the level of 600 and 200 kDa; also recorded: major changes on two protein bands
mucolytic effect on airway mucus (porcine airway mucus; mucus collected from porcine airways, summary of FIG. 9): mucolytic effect, similar to cysteamine
native Muc5ac levels on epithelial luminal surfaces (immunoblot) (secreted Muc5ac mucin): decreased native Muc5ac levels
